Results: patent publication US9567291B2, “N-(4-(bis(4-(dimethylamino)phenyl)methylene)-8-(dimethylamino)” (EMORY UNIVERSITY, priority 2013, dated 2017)
“Also recorded” adds a separate entry of the source.

Experiments:
Format in all cases: cell-based
[1] = system: LM36R cells; assay: cell proliferation assay, LM36R cells; details: 24 h treatment
Protocol: (§1) FIG. 1 illustrates the cell proliferation assay procedure. 5×10^4 cells were seeded in 24-well plates and incubated for 24 h. Stock solutions of PSB, PSMB, and IB were diluted into 5 mL of appropriate media samples for each treatment concentration (1 μM, 2.5 μM, etc). One mL was then added to each of the four wells per treatment concentration. Cells were incubated for 24 h in standard conditions. Cells were then washed with Phosphate Buffered Saline (Sigma Aldrich) and harvested by trypsinization (0.5 mL/well). Cells were incubated for 10 minutes in standard conditions and diluted into a 10 mL isotone solution. The isotone solution was subsequently placed into a cell counter, providing a count that represented 1/20 the number of cells per well.
(§2) A375 cells were grown in high-glucose Dulbecco's modified Eagle's medium (DMEM) (Mediatech) supplemented with fetal bovine serum (FBS) and penicillin/streptomycin (Sigma-Aldrich) in standard conditions (37° C., 5% CO2, humidified atmosphere). LM36 and LM36R cells were grown in cultured in RPMI medium supplemented with 10% FBS, L-glutamine and antibiotics in standard conditions (37° C., 5% CO2, humidified atmosphere).

[2] = system: A375 cells; assay: cell proliferation assay, A375 cells; details: 24 h treatment; for inhibition of cell proliferation: cell count, FIG. 4A/5A
Protocol: as §1, §2

[3] = system: LM36 cells; assay: cell proliferation assay, LM36 cells; details: 24 h treatment
Protocol: as §1, §2

Substance | antiproliferative potency compared to IB [1] | inhibition of cell proliferation ([1]; cell count, FIG. 4B/5B) | antiproliferative potency compared to IB [2] | inhibition of cell proliferation [2] | antiproliferative potency compared to IB [3] | inhibition of cell proliferation ([3]; cell count, FIG. 4C/5C)
N-(4-(bis(4-(dimethylamino)phenyl)methylene)-8-(dimethylamino)naphthalen-1(4H)-ylidene)-N-methylmethanaminium [PSMB] | greater antiproliferative effects than IB; also recorded: more potent inhibition than IB | anti-proliferative effects that operate in a concentration-dependent fashion | greater antiproliferative effects than IB; also recorded: more potent inhibition than IB | anti-proliferative effects that operate in a concentration-dependent fashion | greater antiproliferative effects than IB; also recorded: more potent inhibition than IB | anti-proliferative effects that operate in a concentration-dependent fashion
N-(4-(bis(4-(diethylamino)phenyl)methylene)-8-(dimethylamino) naphthalen-1(4H)-ylidene)-N-methylmethanaminium [PSB] | Such a trend is not observed | – | only exhibits greater antiproliferative effects in A375 cells; also recorded: more potent than IB | inhibits A375 proliferation in a concentration-dependent fashion | Such a trend is not observed | –
